Measurements from EPA's ToxRefDB 2.

What was measured:
rat [1] = details: Subchronic oral toxicity in rodents, fischer, Gavage/Intubation, dose end: 13 week, group: systemic, systemic / in life observation / clinical signs / aggressive behavior + systemic / in life observation / clinical signs / hypersensitivity…
mouse [2] = details: Subchronic oral toxicity in rodents, b6c3f1, Gavage/Intubation, dose end: 22 week, group: systemic, systemic / in life observation / clinical signs / aggressive behavior + systemic / in life observation / clinical signs / convulsions + …
rat [3] = details: Carcinogenicity, fischer, Oral, Gavage/Intubation, dose end: 105 week, group: systemic
mouse [4] = details: Subchronic oral toxicity in rodents, b6c3f1, Gavage/Intubation, dose end: 13 week
rat [5] = details: Subchronic oral toxicity in rodents, fischer, Gavage/Intubation, dose end: 13 week
rat [6] = details: Subchronic oral toxicity in rodents, fischer, Feed, dose end: 12 week, group: systemic
mouse [7] = details: Subchronic oral toxicity in rodents, b6c3f1, Feed, dose end: 12 week, group: systemic
mouse [8] = details: Combined chronic toxicity/carcinogenicity, b6c3f1, Oral, Feed, dose end: 2 year, group: systemic
rat [9] = details: Combined chronic toxicity/carcinogenicity; fischer; Oral; Feed; dose end: 2 year; group: systemic; systemic / in life observation / body weight / body weight
rat [10] = details: Combined chronic toxicity/carcinogenicity, fischer, Oral, Feed, dose end: 2 year, group: systemic
mouse [11] = details: Subchronic oral toxicity in rodents, b6c3f1, Feed, dose end: 13 week, group: systemic
mouse [12] = details: Carcinogenicity; b6c3f1; Oral; Feed; dose end: 103 week; group: systemic; systemic / in life observation / body weight / body weight
rat [13] = details: Chronic toxicity, fischer, Oral, Feed, dose end: 103 week, group: systemic
dog = details: Subchronic oral toxicity in nonrodent, beagle, Capsule, dose end: 26 week, group: systemic
mouse [14] = details: Carcinogenicity, b6c3f1, Oral, Feed, dose end: 2 year, group: systemic
rat [15] = details: Carcinogenicity; fischer; Oral; Feed; dose end: 103 week; group: systemic; systemic / pathology microscopic / pituitary gland / hyperplasia
rat [16] = details: Multigenerational reproductive toxicity study, sprague dawley, Oral, Feed, dose end: 2 generation
rat [17] = details: Subchronic oral toxicity in rodents, fischer, Feed, dose end: 13 week, group: systemic
rat [18] = details: Prenatal developmental toxicity study, other, Oral, Gavage/Intubation, dose end: 19 GD
rat [19] = details: Multigenerational reproductive toxicity study, sprague dawley, Oral, Feed, dose end: 2 generation; remark: listed apart in the source
mouse [20] = details: Prenatal developmental toxicity study; cd1; Oral; Gavage/Intubation; dose end: 17 GD; group: developmental; systemic / in life observation / clinical signs / aggressive behavior + systemic / organ weight / testes / absolute
[21] = systemic / in life observation / clinical signs / [other] + systemic / in life observation / clinical signs / convulsions
[22] = systemic / in life observation / clinical signs / [other] + systemic / in life observation / clinical signs / convulsions + systemic / …
[23] = group: maternal, reproductive / reproductive performance / estrous cycle / abnormal
[24] = group: systemic, systemic / in life observation / body weight / body weight + systemic / in life observation / body weight / body weight gain
[25] = group: systemic, systemic / in life observation / clinical signs / aggressive behavior + systemic / in life observation / clinical signs / convulsions + …
[26] = group: systemic, systemic / in life observation / clinical signs / aggressive behavior + systemic / in life observation / clinical signs / reactivity to …
[27] = systemic / in life observation / body weight / body weight gain
[28] = systemic / in life observation / body weight / body weight gain + systemic / pathology microscopic / bone marrow / hyperplasia + systemic / …
[29] = systemic / in life observation / body weight / body weight + systemic / pathology microscopic / liver / carcinoma
[30] = systemic / pathology microscopic / liver / carcinoma
[31] = systemic / in life observation / body weight / body weight + systemic / in life observation / food consumption / food consumption + systemic…
[32] = systemic / in life observation / body weight / body weight + systemic / in life observation / mortality / mortality + systemic / organ …
[33] = systemic / organ weight / liver / relative to body weight + systemic / organ weight / liver / absolute
[34] = systemic / pathology microscopic / skin / subcutaneous mass
[35] = systemic / clinical chemistry / cholesterol / cholesterol + systemic / clinical chemistry / glucose / glucose + systemic / hematology / …
[36] = systemic / in life observation / body weight / body weight + systemic / in life observation / body weight / body weight gain + systemic / in…
[37] = systemic / in life observation / body weight / body weight + systemic / in life observation / body weight / body weight gain
[38] = group: offspring, systemic / in life observation / body weight / offspring (pup) weight + systemic / in life observation / body weight / offspring (pup) …
[39] = group: parental, systemic / in life observation / body weight / body weight + systemic / in life observation / body weight / body weight gain
[40] = group: reproductive, reproductive / offspring survival early / litter size / litter size + reproductive / offspring survival early / birth index / live birth …
[41] = systemic / in life observation / body weight / body weight + systemic / in life observation / clinical signs / fur (altered appearance) + …
[42] = group: developmental, systemic / in life observation / body weight / fetal weight
[43] = group: maternal, systemic / in life observation / clinical signs / abnormal movements + systemic / in life observation / clinical signs / salivation
[44] = group: offspring, systemic / in life observation / clinical signs / [other]
[45] = group: parental, systemic / organ weight / liver / relative to body weight

CCCCCc1cc(O)c2c(c1)OC(C)(C)[C@@H]1CCC(C)=C[C@@H]21 [1-trans-delta-9-Tetrahydrocannabinol]
LEL (rat [1]): 5 mg/kg/day
LOAEL (rat [1]): > 500 mg/kg/day
NEL (rat [1]): < 5 mg/kg/day
NOAEL (rat [1]): ≥ 500 mg/kg/day
LEL (mouse [2]): 5 mg/kg/day
LOAEL (mouse [2]): > 500 mg/kg/day
NEL (mouse [2]): < 5 mg/kg/day
NOAEL (mouse [2]): ≥ 500 mg/kg/day
LOAEL (rat [3]; [21]): 12.5 mg/kg/day
NOAEL (rat [3]; [21]): < 12.5 mg/kg/day
LEL (rat [3]; [22]): 12.5 mg/kg/day
NEL (rat [3]; [22]): < 12.5 mg/kg/day
LEL (mouse [4]; [23]): 5 mg/kg/day
LOAEL (mouse [4]; [23]): > 500 mg/kg/day
NEL (mouse [4]; [23]): < 5 mg/kg/day
NOAEL (mouse [4]; [23]): ≥ 500 mg/kg/day
LOAEL (mouse [4]; [24]): 500 mg/kg/day
LEL (mouse [4]; [25]): 5 mg/kg/day
NEL (mouse [4]; [25]): < 5 mg/kg/day
NOAEL (mouse [4]; [25]): 150 mg/kg/day
LEL (rat [5]; [23]): 15 mg/kg/day
LOAEL (rat [5]; [23]): > 500 mg/kg/day
NEL (rat [5]; [23]): 5 mg/kg/day
NOAEL (rat [5]; [23]): ≥ 500 mg/kg/day
LOAEL (rat [5]; [24]): 15 mg/kg/day
LEL (rat [5]; [26]): 5 mg/kg/day
NEL (rat [5]; [26]): < 5 mg/kg/day
NOAEL (rat [5]; [26]): 5 mg/kg/day

O=S(=O)([O-])c1ccc(N=Nc2c(O)ccc3cc(S(=O)(=O)[O-])ccc23)cc1.[Na+].[Na+] [FD&C Yellow 6]
LEL (rat [6]; [27]): 625 mg/kg/day
LOAEL (rat [6]; [27]): 2500 mg/kg/day
NEL (rat [6]; [28]): 300 mg/kg/day
NOAEL (rat [6]; [28]): 1250 mg/kg/day
LEL (mouse [7]; [27]): 900 mg/kg/day
LOAEL (mouse [7]; [27]): 15000 mg/kg/day
NEL (mouse [7]; [27]): < 900 mg/kg/day
NOAEL (mouse [7]; systemic / in life observation / body weight / body weight gain + systemic / in life observation / body weight / body weight): 7500 mg/kg/day
LOAEL (mouse [8]; [29]): > 3750 mg/kg/day
NOAEL (mouse [8]; [29]): ≥ 3750 mg/kg/day
LEL (mouse [8]; [30]): 1880 mg/kg/day
NEL (mouse [8]; [30]): < 1880 mg/kg/day
LEL (rat [9]): 1250 mg/kg/day
LOAEL (rat [9]): > 1250 mg/kg/day
NEL (rat [9]): 625 mg/kg/day
NOAEL (rat [9]): ≥ 1250 mg/kg/day

C=C(C)[C@H]1Cc2c(ccc3c2O[C@@H]2COc4cc(OC)c(OC)cc4[C@@H]2C3=O)O1 [Rotenone]
LOAEL (rat [10]; systemic / in life observation / body weight / body weight + systemic / in life observation / food consumption / food consumption): 1.88 mg/kg/day
LEL (rat [10]; [31]): 1.88 mg/kg/day
NEL (rat [10]; [31]): 0.375 mg/kg/day
NOAEL (rat [10]; [31]): 0.375 mg/kg/day
LOAEL (mouse [11]; [32]): > 7500 mg/kg/day
NOAEL (mouse [11]; [32]): ≥ 7500 mg/kg/day
LEL (mouse [11]; [33]): 90 mg/kg/day
NEL (mouse [11]; [33]): < 90 mg/kg/day
LEL (mouse [12]): 111 mg/kg/day
LOAEL (mouse [12]): > 242 mg/kg/day
NEL (mouse [12]): < 111 mg/kg/day
NOAEL (mouse [12]): ≥ 242 mg/kg/day
LOAEL (rat [13]; systemic / pathology microscopic / pituitary gland / hyperplasia + systemic / pathology microscopic / parathyroid gland / hyperplasia): 3.4 mg/kg/day
NOAEL (rat [13]; systemic / pathology microscopic / pituitary gland / hyperplasia + systemic / pathology microscopic / parathyroid gland / hyperplasia + …): 1.7 mg/kg/day
LEL (rat [13]; [34]): 1.8 mg/kg/day
NEL (rat [13]; [34]): < 1.8 mg/kg/day
LOAEL (dog; [35]): 10 mg/kg/day
NEL (dog; [35]): 0.4 mg/kg/day
NOAEL (dog; [35]): 2 mg/kg/day
LEL (dog; [36]): 2 mg/kg/day
LOAEL (mouse [14]; [37]): 111 mg/kg/day
NOAEL (mouse [14]; [37]): < 111 mg/kg/day
LEL (mouse [14]; [36]): 111 mg/kg/day
NEL (mouse [14]; [36]): < 111 mg/kg/day
LEL (rat [15]): 3.4 mg/kg/day
LOAEL (rat [15]): > 3.4 mg/kg/day
NEL (rat [15]): 1.7 mg/kg/day
NOAEL (rat [15]): ≥ 3.4 mg/kg/day
LEL (rat [16]; [38]): 3.1 mg/kg/day
LOAEL (rat [16]; [38]): 3.1 mg/kg/day
NEL (rat [16]; [38]): 0.6 mg/kg/day
NOAEL (rat [16]; [38]): 0.6 mg/kg/day
LEL (rat [16]; [39]): 3 mg/kg/day
LOAEL (rat [16]; [39]): 3 mg/kg/day
NEL (rat [16]; [39]): 0.6 mg/kg/day
NOAEL (rat [16]; [39]): 0.6 mg/kg/day
LEL (rat [16]; [40]): 7 mg/kg/day
LOAEL (rat [16]; [40]): > 7 mg/kg/day
NEL (rat [16]; [40]): 3.1 mg/kg/day
NOAEL (rat [16]; [40]): ≥ 7 mg/kg/day
LOAEL (rat [17]; [41]): > 60 mg/kg/day
NEL (rat [17]; [41]): 3.75 mg/kg/day
NOAEL (rat [17]; [41]): ≥ 60 mg/kg/day
LEL (rat [17]; systemic / in life observation / body weight / body weight + systemic / pathology microscopic / bone marrow / atrophy + systemic / pathology…): 7.5 mg/kg/day
LEL (rat [18]; [42]): 6 mg/kg/day
LOAEL (rat [18]; [42]): 6 mg/kg/day
NEL (rat [18]; [42]): 3 mg/kg/day
NOAEL (rat [18]; [42]): 3 mg/kg/day
LEL (rat [18]; [43]): 0.75 mg/kg/day
LOAEL (rat [18]; [43]): 0.75 mg/kg/day
NEL (rat [18]; [43]): < 0.75 mg/kg/day
NOAEL (rat [18]; [43]): < 0.75 mg/kg/day

Clc1ccc(C(c2ccccc2Cl)C(Cl)(Cl)Cl)cc1 (stereo not drawn) [o,p'-DDT]
LEL (rat [19]; [44]): 10 mg/kg/day
LOAEL (rat [19]; [44]): > 10 mg/kg/day
NEL (rat [19]; [44]): 1 mg/kg/day
NOAEL (rat [19]; [44]): ≥ 10 mg/kg/day
LEL (rat [19]; [45]): 10 mg/kg/day
LOAEL (rat [19]; [45]): > 10 mg/kg/day
NEL (rat [19]; [45]): 1 mg/kg/day
NOAEL (rat [19]; [45]): ≥ 10 mg/kg/day
LEL (mouse [20]): 18 mg/kg/day
LOAEL (mouse [20]): > 180 mg/kg/day
NEL (mouse [20]): < 18 mg/kg/day
NOAEL (mouse [20]): ≥ 180 mg/kg/day
